Assay results published in ChEMBL document CHEMBL1142413.

Experiments:
[1] = organism: Homo sapiens; assay: Ratio of IC50 for human CB1R F200L mutant to IC50 for human wild type CB1R
[2] = organism: Homo sapiens; assay: Ratio of IC50 for human CB1R W279A mutant to IC50 for human wild type CB1R
[3] = organism: Homo sapiens; assay: Ratio of IC50 for human CB1R K192L mutant to IC50 for human wild type CB1R
[4] = organism: Homo sapiens; assay: Ratio of IC50 for human CB1R S383A mutant to IC50 for human wild type CB1R

Cc1c(C(=O)NN2CCCCC2)nn(-c2ccc(Cl)cc2Cl)c1-c1ccc(Cl)cc1
Fold change [1]: 3 | Fold change [2]: > 1000 | Fold change [3]: 17 | Fold change [4]: < 2
